Laboratory results reported in US7235584B2, “Non-psychotropic cannabinoids” (Pharmos Corporation, priority 2000, dated 2007).

Assays:
[1] = test system: NMDA receptor; experiment: [3H]MK-801 displacement radioligand binding, rat forebrain membranes; conditions: for IC50: displacement of [3H]MK-801, rat forebrain membranes, read-out: NMDA BINDING IC50
Description: The identification of possible recognition sites for PRS-211 analogs was carried out by measuring the ability of these PRS-211 analogs to inhibit the binding of MK-801 to rat forebrain membranes.
Brains were removed from Sprague-Dawley rats no more than 5 min after decapitation. Membrane preparations were isolated according to a procedure described previously (Eshhar et al., Brain Res. 476:57, 1989). Prior to radioligand binding measurements, endogenous glutamate present in membranes was removed from the preparation by subjecting the membranes to 3–4 successive washings in 10 mM Tris HCl pH 7.2, performed at 4° C.
The specific binding of the new analogs to NMDA receptors was determined by their ability to displace [^3H]MK-801 from NMDA receptor in rat forebrain preparations. Specifically, rat-forebrain membranes (0.1 mg) were incubated for 2 hours at room temperature with 10 nM of tritiated MK-801 and with the PRS-211 compounds at 3 doses each. Non-specific binding was determined by the use of 0.1 mM MK-801. Following the incubation, bound radioligand was separated from unbound by filtration through GF/B filters. The filters were counted in a β-counter and log of analog concentrations versus % of [^3H]MK-801 specific binding was plotted. The IC50 was calculated from this plot.
Binding of [^3H]MK-801 to membranes was carried out in the presence of 30 μM glycine and 10 μM L-glutamate. Membranes (250 μg protein) were resuspended in 50 mM tris-acetate pH 7.4 buffer and incubated with 10 nM [^3H]MK-801, either alone or in the presence of PRS-211 compounds at 0.1–100 μM concentrations for three hours at room temperature (RT). Reaction buffers used in the different radioligand binding studies contained 10% of an ethanol/Emulphor 620/deionized water mixture. The ratio (by volume) of the respective components in the mixture was 20/3/57. This mixture is required for solubilizing PRS-211 compounds at concentrations above 30 μM. Reaction volume was 1 ml. Non-specific [^3H]MK-801 binding was determined in the presence of 100 μM unlabeled MK-801.
Concentration dependence of certain PRS-211 analogs on inhibition of [^3H]MK-801 binding is illustrated in FIG. 1.

[2] = test system: TNFα; experiment: Inhibition of TNFα in LPS-activated macrophage cell cultures (ELISA); type: cell-based
Description: Specific aspects of the inflammatory response cascade are mediated by the cytokine TNFα. Inhibition of TNFα production and/or inhibition of TNFα release by the new analogs are assayed in macrophage cell cultures activated with LPS. This serves as another indication of the general anti-inflammatory potential of the novel compounds.
The method for macrophage cell culture growth is identical to the one described in PGE2 assay. Aliquots of the supernatants collected following stimulation with LPS were quantitated for TNFα by enzyme linked immunosorbent assay (ELISA) using HRP conjugated to anti-TNFα antibodies and […] for the colorimetric reaction. The peroxidase catalyzed color reaction was stopped by acidification and the absorbance at 450 nm is measured. The absorbance at this wavelength is proportional to the concentration of TNFα in the sample determined from a standard curve plotting the concentrations of TNFα standards versus their absorbance.

[3] = test system: T1, nitric oxide synthase (NOS); experiment: Inhibition of nitric oxide synthase, fluorimetric nitrite assay in LPS-stimulated macrophage supernatants; type: cell-based; conditions: macrophage cell cultures
T1 construct: endogenous in cells
Description: As one aspect of the anti-oxidative potential of the novel analogs they were tested for their ability to inhibit the enzyme nitric oxide synthase (NOS). This assay can also serve as another indication of the anti-inflammatory cascade, as well as the anti-oxidative mechanisms.
The final products of NOS are Nitrite (NO2) and Nitrate (NO3). The in vitro fluorimetric assay provides an accurate method for the measurement of the Nitrite, which is the majority of NO products. The principle of the fluorimetric assay is based on the addition of DAN (2,3-diaminonaphthalene) to the aliquots of the supernatants collected from macrophage cell cultures incubated with the new analogs and stimulated with LPS. Following, NaOH was added to convert Nitrite to a fluorescent compound 1(H)-naphthtriazole. The fluorescence was measured immediately in a fluorimeter using excitation wavelength of 365 nm and an emission wavelength of 450 nm.

[4] = test system: cannabimimetic activity; conditions: in vivo; cited from earlier work

T1 sequence (P35228 whole entry): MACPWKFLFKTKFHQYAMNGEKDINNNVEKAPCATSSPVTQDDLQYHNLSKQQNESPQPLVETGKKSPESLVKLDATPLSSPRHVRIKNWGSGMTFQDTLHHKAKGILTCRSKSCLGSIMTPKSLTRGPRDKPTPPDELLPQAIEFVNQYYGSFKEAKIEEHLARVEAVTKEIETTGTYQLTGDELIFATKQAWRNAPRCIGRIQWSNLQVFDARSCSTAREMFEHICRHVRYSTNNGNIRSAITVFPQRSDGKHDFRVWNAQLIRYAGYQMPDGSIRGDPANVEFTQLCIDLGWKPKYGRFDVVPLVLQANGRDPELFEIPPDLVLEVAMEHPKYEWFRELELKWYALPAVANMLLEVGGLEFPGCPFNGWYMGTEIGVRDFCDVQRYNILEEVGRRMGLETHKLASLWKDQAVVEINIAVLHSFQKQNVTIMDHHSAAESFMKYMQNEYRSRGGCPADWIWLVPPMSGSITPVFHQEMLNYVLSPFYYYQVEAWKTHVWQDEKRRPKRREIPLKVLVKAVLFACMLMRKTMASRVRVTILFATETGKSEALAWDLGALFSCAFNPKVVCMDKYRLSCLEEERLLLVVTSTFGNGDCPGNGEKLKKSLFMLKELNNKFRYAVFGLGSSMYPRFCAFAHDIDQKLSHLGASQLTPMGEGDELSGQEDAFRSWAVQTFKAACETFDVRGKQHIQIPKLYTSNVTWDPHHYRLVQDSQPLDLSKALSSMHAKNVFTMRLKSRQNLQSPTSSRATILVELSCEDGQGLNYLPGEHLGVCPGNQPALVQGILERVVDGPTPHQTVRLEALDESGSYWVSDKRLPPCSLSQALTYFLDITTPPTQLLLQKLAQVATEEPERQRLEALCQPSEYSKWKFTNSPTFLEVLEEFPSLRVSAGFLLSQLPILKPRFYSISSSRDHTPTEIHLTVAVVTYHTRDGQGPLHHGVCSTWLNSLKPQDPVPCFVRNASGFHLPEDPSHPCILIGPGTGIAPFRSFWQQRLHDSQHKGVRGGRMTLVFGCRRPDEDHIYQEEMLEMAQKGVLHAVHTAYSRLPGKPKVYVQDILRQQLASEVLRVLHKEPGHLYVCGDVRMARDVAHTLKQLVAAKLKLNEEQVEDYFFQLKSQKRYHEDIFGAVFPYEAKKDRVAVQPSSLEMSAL

## CCCCCCC(C)(C)c1cc(O)c2c(c1)OC(C)(C)[C@H]1CC=C(CN3CCC(C)CC3)CC21 (single isomer, unassigned; (+)) [211,251-000]
[1]
  NMDA receptor binding / affinity (in words): do not exhibit substantial NMDA receptor binding
  IC50: > 100 µM
[2]
  inhibition at 10 µM: 0%
[3]
  inhibition at 10 µM: 37%

## CCCCCCC(C)(C)c1cc(O)c2c(c1)OC(C)(C)[C@H]1CC=C(CN3CCC(N4CCCCC4)CC3)CC21 (single isomer, unassigned; (+)) [211,257-000]
[1]
  NMDA receptor binding / affinity (in words): do not exhibit substantial NMDA receptor binding
  IC50: > 100 µM
[2]
  inhibition at 10 µM: 10%
[3]
  inhibition at 10 µM: 39%

## CCCCCCC(C)(C)c1cc(O)c2c(c1)OC(C)(C)[C@@H]1CC=C(CO)C[C@@H]21 [HU-210]
[4]
  cannabimimetic activity relative to Δ-1-tetrahydrocannabinol: ~100 times
